# From patent US10508090B2, “Sulfonamides as GPR40- and GPR120-agonists” (DOMPÉ FARMACEUTICI S.P.A., priority 2016, dated 2019)
# Assays:
# STC-1 cells = test: In vitro GLP-1 secretion in STC-1 cells (ELISA); type: cell-based, murine; conditions: for fold induction at 30 µM: Mus musculus, STC-1, 0.5 h, read-out: GLP-1 RELEASE STC-1, fold of increase over DMSO
# Procedure: (§1) GPR120/40 Activation: In Vitro GLP-1 Secretion
# (§2) 2×10^5 STC-1 cells were seeded in a 12-plate and 24 hours later were treated with selected compounds. 1×10^6 NCI-H716 cells were differentiated in matrigel-coated 12-plate and treated 48 h hours later.
# (§3) The day of the experiment, wells were washed once with 1 ml of PBS and then cells were stimulated with 0.5 ml of DMEM (w/o serum, w/o phenol-red) containing 30 μM of selected compounds in STC1 and 100 μM in differentiated NCIH716 for 30 minutes. DMSO has been used as negative control, α-linolenic acid (ALA) (endogenous agonist) as positive control. After stimulations, supernatants were collected, centrifuged at 4000 rpm for 4′ at 4° C., and used for the GLP1 detection by ELISA.
# human GPR120 = biological target: T1, human GPR120 (Homo sapiens, UniProt Q5NUL3); test: In vitro Ca2+ mobilization, CHO-k1 cells stably expressing human GPR120; type: cell-based; conditions: for AC50: intracellular calcium, CHO-k1 cells expressing human GPR120, read-out: Ca2+ hGPR120 AC50
# T1 construct: expressed in transfected cells; host or cells: CHO-k1
# T1 sequence (Q5NUL3 1-361): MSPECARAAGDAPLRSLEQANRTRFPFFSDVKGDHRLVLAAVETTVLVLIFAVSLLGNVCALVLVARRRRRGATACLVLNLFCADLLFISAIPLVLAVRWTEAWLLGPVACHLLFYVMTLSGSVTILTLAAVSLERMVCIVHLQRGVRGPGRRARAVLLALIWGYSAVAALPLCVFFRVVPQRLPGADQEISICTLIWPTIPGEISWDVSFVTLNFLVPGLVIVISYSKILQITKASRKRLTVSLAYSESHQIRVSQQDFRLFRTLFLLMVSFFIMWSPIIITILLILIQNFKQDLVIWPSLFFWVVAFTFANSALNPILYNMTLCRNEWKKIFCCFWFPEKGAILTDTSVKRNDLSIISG
# Procedure: (§4) GPR120/40 Activation: In Vitro Ca^2+ Mobilization
# (§5) The activation of GPR120/40 by all compounds was determined by measuring changes in intracellular calcium levels using a Ca^2+ sensitive fluorescent dye.
# (§6) The experiments were performed using CHO-k1 cells stably expressing the human GPR120 or GPR40. Cells were seeded 10000 cells/well in 384-plates in complete medium and grown overnight at 37° C., 5% CO2. 24 h after seeding, cell culture media was removed and cells were loaded with the fluorescent Ca^2+ indicator (Fluo-8 NW dye in Tyrode's buffer). Dye-loaded cell plates were incubated for 1 h at room temperature under a yellow light sodium lamp.
# (§7) Cell were treated with test compounds and controls at 10, 30 and 60 μM. The kinetic response was monitored over a period of 7 minutes (using FLIPRTETRA system). A second injection of 3× concentrated reference agonist at ˜EC50 were then administered to cells and the signal of the emitted fluorescence was measured over a period of additional 3 minutes. The agonist effect is expressed as a percentage of activation, with 100% activation being a result in which the Response Values of the test wells reach a level identical to the one of the Stimulator Controls (alpha linolenic acid reference agonist EC100). 0% activation is a result in which the Response Values of the test wells reach a level identical to the one of the Neutral Controls (assay buffer) in the AGO_KRV (Agonist Kinetic Response Value) response value.
# NCI-H716 cells = test: In vitro GLP-1 secretion in differentiated NCI-H716 cells (ELISA); type: cell-based, human; conditions: for fold induction at 100 µM: Homo sapiens, NCI-H716, 0.5 h, compound at 100 μM for 30 minutes, differentiated NCI-H716 cells, read-out: GLP-1 RELEASE NCI, fold of increase over DMSO
# Procedure: as §1, §2, §3
# human GPR40 = biological target: T2, human GPR40 (Homo sapiens, UniProt O14842); test: In vitro Ca2+ mobilization, CHO-k1 cells stably expressing human GPR40; type: cell-based; conditions: for AC50 / Ca2+ hGPR40 AC50: intracellular calcium, CHO-k1 cells expressing human GPR40; for AC50: read-out: Ca2+ hGPR40 AC50
# T2 construct: expressed in transfected cells; host or cells: CHO-k1
# Procedure: as §4, §5, §6, §7
# [1] = compound at 30 μM for 30 minutes, STC-1 cells
# T2 sequence (O14842 whole entry): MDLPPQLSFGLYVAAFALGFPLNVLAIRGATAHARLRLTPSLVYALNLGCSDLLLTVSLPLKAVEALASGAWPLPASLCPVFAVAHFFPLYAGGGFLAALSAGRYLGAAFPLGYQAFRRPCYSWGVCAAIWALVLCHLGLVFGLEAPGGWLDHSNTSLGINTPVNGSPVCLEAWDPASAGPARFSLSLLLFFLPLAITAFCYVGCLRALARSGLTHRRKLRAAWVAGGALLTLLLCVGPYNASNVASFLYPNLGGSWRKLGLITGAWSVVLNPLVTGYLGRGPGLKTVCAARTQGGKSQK
SMILES,"GLP-1 secretion in STC1 (murine) cells, in words (STC-1 cells)",fold induction at 30 µM (STC-1 cells; [1]),"agonistic activity on GPR120 (AC50 in the calcium mobilization assay), in words (human GPR120)",AC50 (human GPR120),"GLP-1 secretion in NCI-H716 (human) cells, in words (NCI-H716 cells)",fold induction at 100 µM (NCI-H716 cells),"agonistic activity on GPR40 (AC50 in the calcium mobilization assay), in words (human GPR40)",AC50 (human GPR40),"GLP-1 RELEASE STC-1, fold of increase over DMSO (STC-1 cells; [1])",Ca2+ hGPR40 AC50 (human GPR40)
"Cc1cc(C(F)(F)F)cc(C)c1NS(=O)(=O)c1cccc(CCCCCCC(=O)O)c1 [Example 6, 7-(3-(N-(2,6-dimethyl-4-(trifluoromethyl)phenyl)sulfamoyl)phenyl)heptanoic acid]",efficacious,4.2 ± 0.45,low microMolar range,6 µM,efficacious,2.54 ± 0.52,low microMolar range,11.7 µM,,
"O=C(O)CCCCCCc1cccc(S(=O)(=O)NC2=NC3CCCCC3N2)c1 (stereo not drawn) [Example 29, 7-(3-(N-(3a,4,5,6,7,7a-hexahydro-1H-benzo[d]imidazol-2-yl)sulfamoyl)phenyl)heptanoic Acid]",,1.12 ± 0.4,,12.4 µM,,2.89 ± 0.81,,8.4 µM,,
"Cc1cc(F)cc(C)c1NS(=O)(=O)c1ccc(CCCCCCC(=O)O)cc1 [Example 25, 7-{4-[(4-fluoro-2,6-dimethylphenyl)sulfamoyl]phenyl}heptanoic acid]",,4.1 ± 0.78,,4.3 µM,,3.2 ± 0.31,,6.1 µM,,
"Cc1cc(N(C)C)cc(C)c1NS(=O)(=O)c1cccc(CCCCCCC(=O)O)c1 [Example 5, 7-(3-(N-(4-(dimethylamino)-2,6-dimethylphenyl)sulfamoyl)phenyl)heptanoic acid]",,4 ± 0.27,,7.9 µM,,1.92 ± 0.14,,10.4 µM,,
"COc1cc(C)c(NS(=O)(=O)c2cccc(CCCCCCC(=O)O)c2)c(C)c1 [Example 8, 7-(3-(N-(4-methoxy-2,6-dimethylphenyl)sulfamoyl)phenyl)heptanoic acid]",,1.7 ± 0.12,,11.7 µM,,2.1 ± 0.08,,4.7 µM,,
"Cc1cc(F)c(-c2ccccc2)cc1NS(=O)(=O)c1cccc(CCCCCCC(=O)O)c1 [Example 9, 7-(3-(N-(6-fluoro-4-methyl-[1,1′-biphenyl]-3-yl)sulfamoyl)phenyl)heptanoic acid]",efficacious,14.5,low microMolar range,11.2 µM,efficacious,6.2,low microMolar range,8.9 µM,14.5 ± 1.24 fold,
"Cc1cc(-c2ccccc2)cc(C)c1NS(=O)(=O)c1cccc(CCCCCCC(=O)O)c1 [Example 32, 7-(3-(N-(3,5-dimethyl-[1,1′-biphenyl]-4-yl)sulfamoyl)phenyl)heptanoic acid]",,3.67 ± 0.9,,11.1 µM,,4.51 ± 0.59,,23.7 µM,,
"Cc1cc(C)c(NS(=O)(=O)c2cccc(CCCCCC(=O)O)c2)c(C)c1 [Example 11, 6-{3-[(2,4,6-trimethylphenyl)sulfamoyl]phenyl}hexanoic acid]",efficacious,1.71 ± 0.21,low microMolar range,6.2 µM,efficacious,1.87 ± 0.27,low microMolar range,,,Inactive
"Cc1cc(O)cc(C)c1NS(=O)(=O)c1cccc(CCCCCCC(=O)O)c1 [Example 31, 7-(3-(N-(4-hydroxy-2,6-dimethylphenyl)sulfamoyl)phenyl)heptanoic acid]",,3.55 ± 0.87,,9.3 µM,,3.7 ± 0.56,,3.2 µM,,
"Cc1noc(C)c1NS(=O)(=O)c1cccc(CCCCCCC(=O)O)c1 [Example 19, 7-(3-(N-(3,5-dimethylisoxazol-4-yl)sulfamoyl)phenyl)heptanoic acid]",,2.57 ± 0.56,,17.6 µM,,2.24 ± 0.39,,12.1 µM,,
"Cc1cc(C)c(CNS(=O)(=O)c2cccc(CCCCCCC(=O)O)c2)c(C)c1 [Example 2, 7-(3-(N-(2,4,6-trimethylbenzyl)sulfamoyl)phenyl)heptanoic acid]",efficacious,3.2 ± 0.47,low microMolar range,7.09 µM,efficacious,2.1 ± 0.52,low microMolar range,11.2 µM,,
"Cn1nnc(NS(=O)(=O)c2cccc(CCCCCCC(=O)O)c2)n1 [Example 27, 7-(3-(N-(2-methyl-2H-tetrazol-5-yl)sulfamoyl)phenyl)heptanoic acid]",,1.99 ± 0.51,,10.1 µM,,2.89 ± 0.55,,10.7 µM,,
"O=C(O)CCCCCCc1cccc(S(=O)(=O)Nc2cccc3c(O)cccc23)c1 [Example 23, 7-{3-[(5-hydroxynaphthalen-1-yl)sulfamoyl]phenyl}heptanoic acid]",,4.34 ± 0.51,,7.1 µM,,4.69 ± 0.41,,8.2 µM,,
"Cc1cc(Oc2ccccc2)cc(C)c1NS(=O)(=O)c1cccc(CCCCCCC(=O)O)c1 [Example 33, 7-(3-(N-(2,6-dimethyl-4-phenoxyphenyl)sulfamoyl)phenyl)heptanoic acid]",efficacious,3 ± 1.82,low microMolar range,18 µM,efficacious,1.58 ± 1.27,low microMolar range,,,Inactive
"Cc1n[nH]c(C)c1NS(=O)(=O)c1cccc(CCCCCCC(=O)O)c1 [Example 12, 7-(3-(N-(3,5-dimethyl-1H-pyrazol-4-yl)sulfamoyl)phenyl)heptanoic acid]",,1.04 ± 0.32,,13.1 µM,,1.41 ± 0.36,,10.7 µM,,
